Experimental data as given in patent US20260102407A1, “TREATMENT METHODS” (priority 2020, published 2026).

Experiments:
[1] = test system: c-Fos; test: Western blot, serum-inducible c-Fos expression in HMEC-1; type: cell-based, human; settings: 30 μM compound, 10% FBS 1 h
Description: Western blot analysis with extracts of cells treated with serum. HMEC-1 (80-90% confluency) were arrested in serum-free MCDB131 medium without EGF or hydrocortisone for 20 h. Cells were treated with 30 μM compound in serum-free MCDB131 medium for 4 h, and the medium was changed to complete medium (with 10% FBS with EGF and hydrocortisone) with 30 μM compound for 1 h. Total protein was harvested as previously described in radioimmunoprecipitation (RIPA) lysis buffer with protease inhibitors (Li, Y., et al., Int J Cardiol 220, 185-191 (2016)). Proteins were resolved on 4-20% (w/v) sodium dodecyl sulfate (SDS)-polyacrylamide gradient gels (Bio-Rad Mini-PROTEAN TGX) and transferred to Immobilon-P PVDF membranes (Millipore, USA). Membranes were blocked with 5% skim milk and incubated with rabbit monoclonal FosB (cat. 2251, 1:1000, Cell Signaling, USA), rabbit monoclonal c-Fos antibodies (cat. 2250, 1:1000, Cell Signaling, USA) at 4° C. overnight or mouse monoclonal […] antibodies (cat. A5316, 1:30000, Sigma-Aldrich) at 22° C. for 15 min then incubated with a horseradish peroxidase conjugated secondary goat anti-rabbit (cat. P0448, 1:1000, DAKO Cytomation, Denmark) or goat anti-mouse (cat. P0447, 1:1000, DAKO Cytomation, Denmark) antibodies for 1 h. Chemiluminescence was detected using the Western Lightning Chemiluminescence system (PerkinElmer, USA) and ImageQuant™ LAS 4000 biomolecular imager (GE Healthcare Life Sciences, USA). Band intensity in images generated with the LAS 4000 on automatic exposure with sensitivity/resolution setting high was quantified using NIH ImageJ.

[2] = test system: VCAM-1; test: Western blot, IL-1β-inducible VCAM-1 expression in HMEC-1; type: cell-based, human
Description: Western blot analysis with extracts of cells treated with IL-13. HMEC-1 (80-90% confluency) were arrested in serum-free MCDB131 medium (Invitrogen, MD) without any growth factor for 48 h. Cells were treated with 30 μM compound in serum-free medium for 4 h, and incubated with 20 ng/ml IL-1β (Sigma, cat. SRE3083) in serum-free medium with the same concentration of compound for up to 4 h, unless otherwise indicated. Total protein was harvested as previously described using RIPA buffer with protease inhibitors. Proteins were resolved on 4-20% (w/v) SDS-polyacrylamide gradient gels and transferred to Immobilon-P PVDF membranes. […] Chemiluminescence was detected using the Western Lightning Chemiluminescence system and ImageQuant™ LAS 4000 biomolecular imager. Band intensity in images generated with the LAS 4000 using the same settings were quantified by NIH ImageJ.

CCOC(=O)Nc1ccc2c(c1)C(=O)N(CC)c1ccccc1O2 [BT2, (10-ethyl-11-oxo-10,11-dihydro-dibenzo[b,f][1,4]oxazepin-2-yl)-carbamic acid ethyl ester]
serum-inducible c-Fos expression (Western blot) [1]: blocked the inducible expression of c-Fos | IL-1β-inducible VCAM-1 expression (Western blot) ([2]; 30 μM, 20 ng/ml IL-1β up to 4 h): inhibited | inhibition of IL-1β-inducible VCAM-1, potency relative to PD98059 ([2]; dose escalation 1-30 μM): more potently than PD98059
